Converted amounts (≈) assume the structure as drawn.
Tested on: MTB H37Rv
Assay: Bacteriostasis experiment: MIC in 96-well plate, two-fold dilution method
Type: cell-based, Mycobacterium tuberculosis
Conditions: MTB H37Rv (ATCC 27294), 7H9 medium, 37° C., about 10 days

| Compound | Inhibitory activity against Mycobacterium tuberculosis, MIC, MTB H37Rv [µg/mL] |
| --- | --- |
| CCCSc1nc2c(c(=O)[nH]1)C(c1ccc3occc3c1)CC(=O)N2 (centres unmarked) [LSL-11-17, 2-propylmercapto-5-(benzofuran-5-yl)-5,6-dihydropyrido[2,3-d]pyrimidin-4,7(3H,8H)-dione] | 4 |

Same assay, conditions: MTB H37Rv, statement on Table 1 data

| Compound | anti-mycobacterium tuberculosis MIC compared with the positive control drug INH |
| --- | --- |
| CCCSc1nc2c(c(=O)[nH]1)C(c1ccc(OCC)cc1)CC(=O)N2 (centres unmarked) [LSL-9-39, 2-propylmercapto-5-(4-ethoxyphenyl)-5,6-dihydropyrido[2,3-d]pyrimidin-4,7(3H,8H)-dione] | equivalent to that of the positive control drug INH |
| CCCSc1nc2c(c(=O)[nH]1)C(c1ccc(OC)cc1[N+](=O)[O-])CC(=O)N2 (centres unmarked) [LSL-9-41, 2-propylmercapto-5-(4-methoxy-2-nitrophenyl)-5,6-dihydropyrido[2,3-d]pyrimidin-4,7(3H,8H)-dione] | equivalent to that of the positive control drug INH |
| CCCSc1nc2c(c(=O)[nH]1)C(c1ccc(O)c([N+](=O)[O-])c1)CC(=O)N2 (centres unmarked) [LSL-10-04, 2-propylmercapto-5-(4-hydroxy-3-nitrophenyl)-5,6-dihydropyrido[2,3-d]pyrimidin-4,7(3H,8H)-dione] | equivalent to that of the positive control drug INH |
| CCCSc1nc2nccc(-c3ccc(OC)cc3)c2c(=O)[nH]1 [LSL-11-02, 2-propylmercapto-5-(4-methoxyphenyl)-pyrido[2,3-d]pyrimidin-4(3H)-one] | equivalent to that of the positive control drug INH |
| CCCSc1nc2nccc(-c3ccc4ncccc4c3)c2c(=O)[nH]1 [LSL-11-08, 2-propylmercapto-5-(quinolin-6-yl)-pyrido[2,3-d]pyrimidin-4(3H)-one] | equivalent to that of the positive control drug INH |
| CCCSc1nc2[nH]c(=O)cc(-c3ccc(OC)cc3)c2c(=O)[nH]1 [LSL-11-09, 2-propylmercapto-5-(4-methoxyphenyl)-pyrido[2,3-d]pyrimidin-4,7(3H,8H)-dione] | equivalent to that of the positive control drug INH |
| CCCSc1nc2c(c(=O)[nH]1)C(c1ccc(SC)cc1)CC(=O)N2 (centres unmarked) [LSL-11-21, 2-propylmercapto-5-(4-methylthiophenyl)-5,6-dihydropyrido[2,3-d]pyrimidin-4,7(3H,8H)-dione] | equivalent to that of the positive control drug INH |

Same assay, conditions: Mycobacterium tuberculosis, ATCC 27294 / H37Rv, 240 h, MTB H37Rv (ATCC 27294), 7H9 medium, 37° C., about 10 days; read-out: Inhibitory activity against Mycobacterium tuberculosis, MIC, MTB H37Rv

| Compound | MIC [µg/mL] |
| --- | --- |
| CCCSc1nc2c(c(=O)[nH]1)C(c1ccc(C)cc1)CC(=O)N2 (centres unmarked) [LSL-9-37, 2-propylmercapto-5-(4-methylphenyl)-5,6-dihydropyrido[2,3-d]pyrimidin-4,7(3H,8H)-dione] | 2 (≈ 6.07 µM) |
| CCCSc1nc2c(c(=O)[nH]1)C(c1ccc(C(F)(F)F)cc1)CC(=O)N2 (centres unmarked) [LSL-9-38, 2-propylmercapto-5-(4-trifluoromethylphenyl)-5,6-dihydropyrido[2,3-d]pyrimidin-4,7(3H,8H)-dione] | 16 (≈ 41.7 µM) |
| CCCSc1nc2c(c(=O)[nH]1)C(c1ccc(OCC)cc1)CC(=O)N2 (centres unmarked) [LSL-9-39, 2-propylmercapto-5-(4-ethoxyphenyl)-5,6-dihydropyrido[2,3-d]pyrimidin-4,7(3H,8H)-dione] | 0.5 (≈ 1.39 µM) |
| CCCSc1nc2c(c(=O)[nH]1)C(c1ccc(OC)c([N+](=O)[O-])c1)CC(=O)N2 (centres unmarked) [LSL-9-40, 2-propylmercapto-5-(4-methoxy-3-nitrophenyl)-5,6-dihydropyrido[2,3-d]pyrimidin-4,7(3H,8H)-dione] | 4 (≈ 10.2 µM) |
| CCCSc1nc2c(c(=O)[nH]1)C(c1ccc(OC)cc1[N+](=O)[O-])CC(=O)N2 (centres unmarked) [LSL-9-41, 2-propylmercapto-5-(4-methoxy-2-nitrophenyl)-5,6-dihydropyrido[2,3-d]pyrimidin-4,7(3H,8H)-dione] | 0.125 (≈ 0.32 µM) |
| CCCSc1nc2c(c(=O)[nH]1)C(c1ccc(Cl)c(N)c1)CC(=O)N2 (centres unmarked) [LSL-9-43, 2-propylmercapto-5-(3-amino-4-chlorophenyl)-5,6-dihydropyrido[2,3-d]pyrimidin-4,7(3H,8H)-dione] | 4 (≈ 11 µM) |
| CCCSc1nc2c(c(=O)[nH]1)C(c1ccc(N)cc1)CC(=O)N2 (centres unmarked) [LSL-9-44, 2-propylmercapto-5-(4-aminophenyl)-5,6-dihydropyrido[2,3-d]pyrimidin-4,7(3H,8H)-dione] | 16 (≈ 48.4 µM) |
| CCCSc1nc2c(c(=O)[nH]1)C(c1cccc(OC)c1)CC(=O)N2 (centres unmarked) [LSL-9-47, 2-propylmercapto-5-(3-methoxyphenyl)-5,6-dihydropyrido[2,3-d]pyrimidin-4,7(3H,8H)-dione] | 4 (≈ 11.6 µM) |
| CCCSc1nc2c(c(=O)[nH]1)C(c1ccccc1OC)CC(=O)N2 (centres unmarked) [LSL-9-48, 2-propylmercapto-5-(2-methoxyphenyl)-5,6-dihydropyrido[2,3-d]pyrimidin-4,7(3H,8H)-dione] | 16 (≈ 46.3 µM) |
| CCCSc1nc2c(c(=O)[nH]1)C(c1cccc(O)c1)CC(=O)N2 (centres unmarked) [LSL-9-49, 2-propylmercapto-5-(3-hydroxyphenyl)-5,6-dihydropyrido[2,3-d]pyrimidin-4,7(3H,8H)-dione] | 16 (≈ 48.3 µM) |
| CCCSc1nc2c(c(=O)[nH]1)C(c1ccc(C#N)cc1)CC(=O)N2 (centres unmarked) [LSL-10-01, 2-propylmercapto-5-(4-cyanophenyl)-5,6-dihydropyrido[2,3-d]pyrimidin-4,7(3H,8H)-dione] | 16 (≈ 47 µM) |
| CCCSc1nc2c(c(=O)[nH]1)C(c1cccc(C#N)c1)CC(=O)N2 (centres unmarked) [LSL-10-02, 2-propylmercapto-5-(3-cyanophenyl)-5,6-dihydropyrido[2,3-d]pyrimidin-4,7(3H,8H)-dione] | 6 (≈ 17.6 µM) |
| CCCSc1nc2c(c(=O)[nH]1)C(c1ccccc1[N+](=O)[O-])CC(=O)N2 (centres unmarked) [LSL-10-03, 2-propylmercapto-5-(2-nitrophenyl)-5,6-dihydropyrido[2,3-d]pyrimidin-4,7(3H,8H)-dione] | 8 (≈ 22.2 µM) |
| CCCSc1nc2c(c(=O)[nH]1)C(c1ccc(O)c([N+](=O)[O-])c1)CC(=O)N2 (centres unmarked) [LSL-10-04, 2-propylmercapto-5-(4-hydroxy-3-nitrophenyl)-5,6-dihydropyrido[2,3-d]pyrimidin-4,7(3H,8H)-dione] | 0.625 (≈ 1.66 µM) |
| CCCSc1nc2c(c(=O)[nH]1)C(c1ccccc1)CC(=O)N2 (centres unmarked) [LSL-10-05, 2-propylmercapto-5-phenyl-5,6-dihydropyrido[2,3-d]pyrimidin-4,7(3H,8H)-dione] | 8 (≈ 25.4 µM) |
| CCCSc1nc2c(c(=O)[nH]1)C(c1ccnc3ccccc13)CC(=O)N2 (centres unmarked) [LSL-10-06, 2-propylmercapto-5-(quinolin-4-yl)-5,6-dihydropyrido[2,3-d]pyrimidin-4,7(3H,8H)-dione] | 4 (≈ 10.9 µM) |
| CCCSc1nc2c(c(=O)[nH]1)C(c1cccc3ncccc13)CC(=O)N2 (centres unmarked) [LSL-10-07, 2-propylmercapto-5-(quinolin-5-yl)-5,6-dihydropyrido[2,3-d]pyrimidin-4,7(3H,8H)-dione] | 16 (≈ 43.7 µM) |
| CCCCSc1nc2c(c(=O)[nH]1)C(c1ccc(OCCC)cc1)CC(=O)N2 (centres unmarked) [LSL-10-23, 2-butylmercapto-5-(4-propoxyphenyl)-5,6-dihydropyrido[2,3-d]pyrimidin-4,7(3H,8H)-dione] | 16 (≈ 41.3 µM) |

| Compound | MIC [µg/mL] |
| --- | --- |
| CCCSc1nc2c(c(=O)[nH]1)C(c1ccc(N3CCOCC3)cc1)CC(=O)N2 (centres unmarked) [LSL-10-43, 2-propylmercapto-5-(4-morpholinophenyl)-5,6-dihydropyrido[2,3-d]pyrimidin-4,7(3H,8H)-dione] | 1 (≈ 2.5 µM) |
| CCCSc1nc2c(c(=O)[nH]1)C(c1ccc(N3CCCCC3)cc1)CC(=O)N2 (centres unmarked) [LSL-10-48, 2-propylmercapto-5-(4-(piperidin-1-yl)phenyl)-5,6-dihydropyrido[2,3-d]pyrimidin-4,7(3H,8H)-dione] | 2 (≈ 5.02 µM) |
| CCCSc1nc2c(c(=O)[nH]1)C(c1ccc(N3CCSCC3)cc1)CC(=O)N2 (centres unmarked) [LSL-10-50, 2-propylmercapto-5-(4-thiomorpholinophenyl)-5,6-dihydropyrido[2,3-d]pyrimidin-4,7(3H,8H)-dione] | 1 (≈ 2.4 µM) |
| CCCSc1nc2nccc(-c3ccc(OC)cc3)c2c(=O)[nH]1 [LSL-11-02, 2-propylmercapto-5-(4-methoxyphenyl)-pyrido[2,3-d]pyrimidin-4(3H)-one] | 0.5 (≈ 1.53 µM) |
| CCCSc1nc2nccc(-c3ccc4ncccc4c3)c2c(=O)[nH]1 [LSL-11-08, 2-propylmercapto-5-(quinolin-6-yl)-pyrido[2,3-d]pyrimidin-4(3H)-one] | 0.25 (≈ 0.718 µM) |
| CCCSc1nc2[nH]c(=O)cc(-c3ccc(OC)cc3)c2c(=O)[nH]1 [LSL-11-09, 2-propylmercapto-5-(4-methoxyphenyl)-pyrido[2,3-d]pyrimidin-4,7(3H,8H)-dione] | 0.25 (≈ 0.728 µM) |
| CCCSc1nc2c(c(=O)[nH]1)C(c1nc3ccccc3s1)CC(=O)N2 (centres unmarked) [LSL-11-18, 2-propylmercapto-5-(benzothiazol-2-yl)-5,6-dihydropyrido[2,3-d]pyrimidin-4,7(3H,8H)-dione] | 2 (≈ 5.37 µM) |
| CCCSc1nc2c(c(=O)[nH]1)C(c1ccc(Sc3ccccc3)cc1)CC(=O)N2 (centres unmarked) [LSL-11-19, 2-propylmercapto-5-(4-phenylthiophenyl)-5,6-dihydropyrido[2,3-d]pyrimidin-4,7(3H,8H)-dione] | 8 (≈ 18.9 µM) |
| CCCSc1nc2c(c(=O)[nH]1)C(c1ccc(S(C)(=O)=O)cc1)CC(=O)N2 (centres unmarked) [LSL-11-20, 2-propylmercapto-5-(4-methanesulfonylphenyl)-5,6-dihydropyrido[2,3-d]pyrimidin-4,7(3H,8H)-dione] | 1 (≈ 2.54 µM) |
| CCCSc1nc2c(c(=O)[nH]1)C(c1ccc(SC)cc1)CC(=O)N2 (centres unmarked) [LSL-11-21, 2-propylmercapto-5-(4-methylthiophenyl)-5,6-dihydropyrido[2,3-d]pyrimidin-4,7(3H,8H)-dione] | 0.5 (≈ 1.38 µM) |
| CCCSc1nc2c(c(=O)[nH]1)C(c1ccc(Br)c([N+](=O)[O-])c1)CC(=O)N2 (centres unmarked) [LSL-11-22, 2-propylmercapto-5-(3-nitro-4-bromophenyl)-5,6-dihydropyrido[2,3-d]pyrimidin-4,7(3H,8H)-dione] | 1 (≈ 2.28 µM) |
| CCCSc1nc2c(c(=O)[nH]1)C(c1ccc(C(=O)O)cc1)CC(=O)N2 (centres unmarked) [LSL-11-24, 2-propylmercapto-5-(4-carboxyphenyl)-5,6-dihydropyrido[2,3-d]pyrimidin-4,7(3H,8H)-dione] | 2 (≈ 5.56 µM) |
| CCCSc1nc2c(c(=O)[nH]1)C(c1ccc(Br)cc1[N+](=O)[O-])CC(=O)N2 (centres unmarked) [LSL-11-25, 2-propylmercapto-5-(2-nitro-4-bromophenyl)-5,6-dihydropyrido[2,3-d]pyrimidin-4,7(3H,8H)-dione] | 4 (≈ 9.11 µM) |
| CCCSc1nc2c(c(=O)[nH]1)C(c1ccccn1)CC(=O)N2 (centres unmarked) [LSL-11-26, 2-propylmercapto-5-(pyridin-2-yl)-5,6-dihydropyrido[2,3-d]pyrimidin-4,7(3H,8H)-dione] | 2 (≈ 6.32 µM) |
| CCCSc1nc2c(c(=O)[nH]1)C(c1ccc(OCC(C)C)cc1)CC(=O)N2 (centres unmarked) [LSL-11-27, 2-propylmercapto-5-(4-isobutoxyphenyl)-5,6-dihydropyrido[2,3-d]pyrimidin-4,7(3H,8H)-dione] | 1 (≈ 2.58 µM) |
| CCCSc1nc2c(c(=O)[nH]1)C(c1cccnc1)CC(=O)N2 (centres unmarked) [LSL-11-28, 2-propylmercapto-5-(pyridin-3-yl)-5,6-dihydropyrido[2,3-d]pyrimidin-4,7(3H,8H)-dione] | 2 (≈ 6.32 µM) |
| CCCSc1nc2c(c(=O)[nH]1)C(c1ccncc1)CC(=O)N2 (centres unmarked) [LSL-11-29, 2-propylmercapto-5-(pyridin-4-yl)-5,6-dihydropyrido[2,3-d]pyrimidin-4,7(3H,8H)-dione] | 8 (≈ 25.3 µM) |
| CCCSc1nc2c(c(=O)[nH]1)C(C1CCCCC1)CC(=O)N2 (centres unmarked) [LSL-11-30, 2-propylmercapto-5-cyclohexyl-5,6-dihydropyrido[2,3-d]pyrimidin-4,7(3H,8H)-dione] | 16 (≈ 49.8 µM) |

Reference: patent publication US20230303561A1, “PYRIMIDINONE DERIVATIVE, PREPARATION METHOD THEREOF AND USE THEREOF IN RESISTING MYCOBACTERIUM TUBERCULOSIS INFECTION” (INSTITUTE OF MEDICINAL BIOTECHNOLOGY, CHINESE ACADEMY OF …, priority 2020, published 2023)
